Earlier results in publication PMC10200032 (Pharmacological Reports, 2023).
In brackets after ≈: the same amount, converted by molar mass.

System: CVB4
Conditions: reference drug in earlier benzoquinazoline studies

Q: With `NC(=O)c1ncn([C@@H]2O[C@H](CO)[C@@H](O)[C@H]2O)n1` [ribavirin] as the compound, how does the “EC50 against CVB4” value read?
A: The value was 29 µg/mL (≈ 119 µM).
